Patent US20130287856A1, “Drug Delivery Dispersion And Film Formed Therefrom” (priority 2010, published 2013)

Assay: Extractable percent of unreacted silicone, second evaluation (cure rate with active agents)
Assay type: physicochemical
Details: for Cure Rate After 3 Min. (%) / Cure Rate After 120 Min. (%): active agent added to Dispersion 1 aged 1 week at 45° C., slope of extractable plot, lower values = higher reactivity; for effect of active agent on cure (in words): active agent in Dispersion 1, after 120 minutes
Procedure: After ageing, the samples are spread out onto silicon free Glassine paper and the water is allowed to evaporate such that the vinyl PDMS and SiH siloxane reaction and form films. More specifically, about 2 grams of each sample is spread using a 1.2 g/m^2 bar equipped with an automatic film application (type 4340 from Braive Instruments). At times from zero to 120 minutes, the percent of vinyl PDMS and SiH siloxane is determined using 30 ml of methylisobutyl ketone (MIBK). Additionally, silicone concentration on the Glassine paper resulting from reacted vinyl PDMS and SiH siloxane is determined by XRF using an Oxford Lab X-3000. The percent unreacted/extractable vinyl PDMS and SiH siloxane is plotted in an extractable plot set forth as FIG. 3. Additional samples of Dispersion 1 are aged for 1 week at 45° C. […] At this point, films are formed from these samples to determine an effect of the active agents on curing and reaction of the vinyl PDMS and SiH siloxane. More specifically, for these samples, an additional extractable plot is generated (not shown in the Figures) using the same method as described above. […] The results of these evaluations are set forth in Table 1 immediately below with lower values representing higher reactivity.

Cure Rate After 3 Min. (%) | Cure Rate After 120 Min. (%) | effect of active agent on cure (in words) | SMILES
16.4 | 3.3 |  | [Cl][Ag] [AgCl]
36.5 | 12.1 | slight inhibition of the cure | O=C(O)c1ccccc1O [Salicylic acid, salicylic acid]
25.7 | 5.4 |  | Clc1ccccc1C(c1ccccc1)(c1ccccc1)n1ccnc1 [Clotrimazol, clotrimazol]
43.3 | 21.8 | slight inhibition of the cure | O=C(O)c1cccnc1 [Vitamin B3, vitamin B3]

More lines, now with the values behind:

SMILES | Cure Rate After 3 Min. (%) | Cure Rate After 120 Min. (%) | effect of active agent on cure (in words)
CCN(CC)CC(=O)Nc1c(C)cccc1C [Lidocaine, lidocaine] | 21.1 | 4.9 | 
Cn1c(=O)c2c(ncn2C)n(C)c1=O [Caffeine, caffeine] | 31.7 | 8.5 | 
CC(C)(CO)[C@@H](O)C(=O)NCCCO [Dexpanthenol, dexpanthenol] | 18.4 | 4.8 | 
